In one data set the target is T1, CYP2J2 (Homo sapiens, UniProt P51589).
T1 sequence (P51589 1-502): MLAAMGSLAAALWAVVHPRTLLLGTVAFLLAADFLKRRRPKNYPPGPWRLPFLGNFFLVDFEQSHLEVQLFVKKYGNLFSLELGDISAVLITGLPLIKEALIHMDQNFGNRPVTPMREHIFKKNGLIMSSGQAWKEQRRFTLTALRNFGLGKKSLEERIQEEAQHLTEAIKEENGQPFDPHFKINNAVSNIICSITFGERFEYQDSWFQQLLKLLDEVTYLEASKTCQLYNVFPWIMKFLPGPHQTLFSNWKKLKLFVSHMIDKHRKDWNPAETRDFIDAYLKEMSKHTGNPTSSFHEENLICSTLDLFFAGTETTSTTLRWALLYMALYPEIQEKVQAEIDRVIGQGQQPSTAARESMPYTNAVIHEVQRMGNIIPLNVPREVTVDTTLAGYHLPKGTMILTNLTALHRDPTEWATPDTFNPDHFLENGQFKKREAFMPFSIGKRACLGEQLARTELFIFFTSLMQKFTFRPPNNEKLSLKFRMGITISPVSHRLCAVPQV
The data set can be described thus: CYP2J2 P450-Glo luciferase assay (FDA Approved Drug Library screen). The note with it: read-out: Average inhibition CYP2J2 (%).

Another data set deals with CYP3A4 (Homo sapiens, UniProt P08684). Description: CYP3A4 P450-Glo luciferase assay (unselective control).
Sequence of CYP3A4 (P08684 whole entry): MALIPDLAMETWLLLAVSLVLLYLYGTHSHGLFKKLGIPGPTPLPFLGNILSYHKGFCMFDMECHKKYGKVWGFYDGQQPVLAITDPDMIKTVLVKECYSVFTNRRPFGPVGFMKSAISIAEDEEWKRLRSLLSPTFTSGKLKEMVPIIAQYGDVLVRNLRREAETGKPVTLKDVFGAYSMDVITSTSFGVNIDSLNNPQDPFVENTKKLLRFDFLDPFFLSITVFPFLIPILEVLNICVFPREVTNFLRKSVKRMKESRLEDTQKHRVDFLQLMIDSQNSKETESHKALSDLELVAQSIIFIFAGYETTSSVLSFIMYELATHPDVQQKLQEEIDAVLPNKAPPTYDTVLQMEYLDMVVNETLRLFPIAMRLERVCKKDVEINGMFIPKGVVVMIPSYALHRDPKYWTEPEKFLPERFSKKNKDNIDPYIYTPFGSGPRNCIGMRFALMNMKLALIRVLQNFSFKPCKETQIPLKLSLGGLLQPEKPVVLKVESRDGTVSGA
The test system of data set [1] is lamina II neurons of spinal cord slices. The data set can be described thus: sEPSC recordings in lamina II neurons of spinal cord slices. Type of data set: cell-based. How it is done:
(d) Frequency of sEPSCs. […] (E) Amplitude of sEPSCs. […] To confirm the effect of TRPV1 sensitization by 9,10-EpOME with electrophysiological means, the inventors measured sEPSCs from lamina II neurons of spinal cord slices using two capsaicin stimulations [1 μM] and incubating the cells prior to the second capsaicin stimulus with 9,10-EpOME [1 μM] (FIG. 3C). […] In combination with capsaicin, however, the sEPSC frequency was strongly potentiated (FIG. 3D). However, no difference in the amplitude of sEPSCs could be observed with either 9,10-EpOME, […] or the combination of both substances (FIG. 3E).

Counter-ions that a name gives are not always drawn.

Regarding `CC(COc1ccccc1)N(CCCl)Cc1ccccc1` (stereo not shown) [c089, Phenoxybenzamine•HCl], the inhibition (as a rule, how much of the control response was suppressed) at 10 µM at CYP2J2 turned out to be 75%. At CYP3A4, this molecule had an inhibition at 30 min, 10 μM of 17.9%.

Take `COc1cc(CNC(=O)CCCC/C=C/C(C)C)ccc1O` [capsaicin]: the “frequency of sEPSCs, substance alone” value in data set [1] (1 mM as printed in legend, baseline 6.9±0.4 Hz, n=5 neurons) is 13.7±0.4 Hz. Further, the “amplitude of sEPSCs” value in data set [1] (n=5 neurons/group) was “no significant effects”.

The values are drawn from US11944613B2, “CYP2J2 antagonists in the treatment of pain” (FRAUNHOFER-GESELLSCHAFT ZUR FÖRDERUNG DER ANGEWANDTEN …, priority 2014, dated 2024).
